# Assay results taken from article PMC5843698, “Use of QSPR Modeling to Characterize In Vitro Binding of Drugs to a Gut-Restricted Polymer” (Pharmaceutical Research, 2018).
# Structures can show the parent of a compound that is named as a salt. Where two headings read alike, the source gives them in different places.
# Key:
# [1] = logP determination by titration in octanol/water
# From the text: The shift of the aqueous pKas in the presence of octanol was used to determine the logP of the different species.
# [2] = pKa determination by titration in aqueous solution (UV or pH monitored)
# Method: Test drug pKas were determined experimentally by titration in aqueous solution. Ionization state was monitored by UV or pH. Reported values are the average of three independent determinations. […] Drug concentration was in the range 17–31 μM (UV) or ≥0.4 mM (pH).
# [3] = logD determination (liquid-liquid distribution chromatography, octanol-coated column)
# Method: The logD of the sample was determined at pH 7.4 by liquid-liquid distribution chromatography. Compounds were eluted from an octanol-coated column with an octanol-saturated mobile phase adjusted to pH 7.4. Compound retention time was converted to logD value by comparison to the retention time of a set of standard compounds with well-characterized logD octanol values.
# [4] = In vitro binding assay: free test drug recovered after 3 h incubation with and without patiromer in SGF, acetate buffer or SIF; conditions: for SGF / SIF / AB: QSPR input data; for SGF: test matrix SGF; for SIF: test matrix SIF; for AB: test matrix acetate buffer (AB); for In Vitro Binding (% Drug Recovered) SGF (pH 3): simulated gastric fluid, final pH 3.0; for In Vitro Binding (% Drug Recovered) SIF (pH 5.9): simulated intestinal fluid, final pH 5.9; for In vitro patiromer binding category: strong, weak or non-binding
# Method: Patiromer binding to test compounds was assessed by comparing free test drug concentrations after incubation with and without patiromer. […] Test drug concentrations were based on the lowest clinically relevant dose of test drug in US prescribing information in a 1-L volume.
# Three test buffers were used: simulated gastric fluid without added pepsin (SGF; initial pH 1.2), acetate buffer (AB; initial pH 4.5), and simulated intestinal fluid without added pancreatin (SIF; initial pH 6.8). Tween-20 was included at 0.05% v/v as a surfactant to aid in solubilizing test drugs.
# Binding studies were performed in a 10 ml volume in 16×100 mm borosilicate tubes, and incubated for 3 h at 37°C with end-over-end rotation at ~25 rpm. After incubation, patiromer was allowed to settle for 5 min; supernatants were withdrawn and passed through a 0.45 μm filter, collected by centrifugation, and transferred to chromatography vials for analysis. Control samples containing buffer and drug, but without patiromer, were subjected to the same experimental process. For 24 of the test drugs, a reversed phase high performance liquid chromatography method was used for analysis in the three test matrices. […] During method qualification, we conducted a pretest of each drug in test media alone to assure no significant loss in recovery during the incubation or filtration steps. If there was not sufficient recovery compared to theoretical concentration, the drug could not be evaluated in that medium. The recovered drug in the presence or absence of patiromer was used to calculate percent recovery of test drug, and represents the geometric mean of 12 replicates.
# To measure binding, each compound was co-incubated with patiromer using the highest single clinical dose of polymer and the minimum clinical dose of test drug. […] Following co-incubation, patiromer and any bound drug were removed by centrifugation and the remaining unbound (recovered) drug was measured in the supernatant.
# [5] = acetate buffer pH 4.5, patiromer 25.2 g/L, 3 h, 37°C, geometric mean of 12 replicates
# [6] = across SGF, AB and SIF test matrices
# [7] = patiromer 25.2 g/L, 3 h, 37°C, geometric mean of 12 replicates
# [8] = aqueous solution, pKa (A = acid), acidic group, average of three determinations
# [9] = octanol-coated column with octanol-saturated mobile phase, pH 3
# [10] = octanol-coated column with octanol-saturated mobile phase, pH 4.5
# [11] = octanol-coated column with octanol-saturated mobile phase, pH 5.9
# [12] = aqueous solution, pKa (B = base), basic group, average of three determinations
SGF [4],SIF [4],AB [4],"In Vitro Binding (% Drug Recovered) Acetate Buffer (pH 4.5) [4, 5] [%]","In Vitro Binding (% Drug Recovered) SGF (pH 3) [4, 7] [%]","In Vitro Binding (% Drug Recovered) SIF (pH 5.9) [4, 7] [%]",logP ([1]; octanol/water),"chromatographic logD [3, 9]","chromatographic logD [3, 10]","chromatographic logD [3, 11]",Molecule,"Binding categories (level of in vitro interaction with patiromer) [4, 6]",further results
,,,,,,,,,,"CC(=O)CC(c1ccccc1)c1c(O)c2ccccc2oc1=O (racemic) [Warfarin (R/S), Warfarin]",,logP [1]: 3.25; pKa [2]: 4.94; chromatographic logD ([3]; pH 3): 3.25; chromatographic logD ([3]; pH 4.5): 3.12; chromatographic logD ([3]; pH 5.9): 2.25
85.7,94.2,90.1,90.1,85.7,94.2,-0.3,-0.3,-0.3,-0.3,Oc1ncnc2[nH]ncc12 [Allopurinol],No binding (<30% drug bound in any test matrix),"pKa [2, 8]: 9.18"
,,,,,,3.39,1.44,1.44,1.46,CCOC(=O)C1=C(COCCN)NC(C)=C(C(=O)OC)C1c1ccccc1Cl (stereo not drawn) [Amlodipine besylate],,
75.6,97.8,97.3,97.3,75.6,97.8,< 1.4,< 1.4,< 1.4,< 1.4,COc1ccc(-n2nc(C(N)=O)c3c2C(=O)N(c2ccc(N4CCCCC4=O)cc2)CC3)cc1 [Apixaban],No binding (<30% drug bound in any test matrix),
100.7,99.9,99.8,99.8,100.7,99.9,0.9,0.78,-0.14,-1.5,CC(=O)Oc1ccccc1C(=O)O [Aspirin],No binding (<30% drug bound in any test matrix),
91.2,101.1,93.3,93.3,91.2,101.1,,,,,CC(C)c1c(C(=O)Nc2ccccc2)c(-c2ccccc2)c(-c2ccc(F)cc2)n1CC[C@@H](O)C[C@@H](O)CC(=O)O [Atorvastatin calcium],No binding (<30% drug bound in any test matrix),
88.7,104.4,95,95,88.7,104.4,,,,,CC1=C(C(=O)O)N2C(=O)[C@@H](NC(=O)[C@H](N)c3ccccc3)[C@H]2SC1 [Cephalexin],No binding (<30% drug bound in any test matrix),In vitro patiromer binding category [4]: non-binding
13.4,18.3,19.3,19.3,13.4,18.3,5.58,2.41,2.44,2.83,C[C@@H](NCCCc1cccc(C(F)(F)F)c1)c1cccc2ccccc12 [Cinacalcet HCl],,"In vitro patiromer binding category [4]: Strong patiromer binding; pKa [2, 12]: 8.85"
66,,,,66,,4.06,2.4,3.67,4.03,COC(=O)[C@H](c1ccccc1Cl)N1CCc2sccc2C1 [Clopidogrel bisulfate],Weak binder (30–55% bound in one test matrix),"In vitro patiromer binding category [4]: Weak binders; pKa [2, 12]: 4.66"
,,,,,,1.91,-4.7,-3.2,-1.8,COCCc1ccc(OCC(O)CNC(C)C)cc1 (stereo not drawn) [Metoprolol tartrate],,
83.4,92.8,90.2,90.2,83.4,92.8,2.43,2.43,2.43,2.43,O=C1NC(=O)C(c2ccccc2)(c2ccccc2)N1 [Phenytoin sodium],No binding (<30% drug bound in any test matrix),"pKa [2, 8]: 8.18"
,,,,,,< -1.5,< -1.5,< -1.5,< -1.5,Cc1cc2nc3c(=O)[nH]c(=O)nc-3n(C[C@H](O)[C@H](O)[C@H](O)CO)c2cc1C [Riboflavin],,"pKa [2, 8]: 9.87"
71.9,95.1,92.9,92.9,71.9,95.1,1.43,1.43,1.43,1.43,O=C(NC[C@H]1CN(c2ccc(N3CCOCC3=O)cc2)C(=O)O1)c1ccc(Cl)s1 [Rivaroxaban],No binding (<30% drug bound in any test matrix),
,,,50.7,28.8,42.9,< -1.5,< -1.5,< -1.5,< -1.5,Cc1ncc(C[n+]2csc(CCO)c2C)c(N)n1 [Thiamin],,"pKa [2, 12]: 4.88"
86.4,98,101.4,101.4,86.4,98,,,,,CCCCC(=O)N(Cc1ccc(-c2ccccc2-c2nnn[nH]2)cc1)[C@H](C(=O)O)C(C)C [Valsartan],No binding (<30% drug bound in any test matrix),In vitro patiromer binding category [4]: non-binding

Molecule,SGF [4],SIF [4],AB [4],"In Vitro Binding (% Drug Recovered) Acetate Buffer (pH 4.5) [4, 5] [%]","In Vitro Binding (% Drug Recovered) SGF (pH 3) [4, 7] [%]","In Vitro Binding (% Drug Recovered) SIF (pH 5.9) [4, 7] [%]",logP ([1]; octanol/water),"chromatographic logD [3, 9]","chromatographic logD [3, 10]","chromatographic logD [3, 11]","Binding categories (level of in vitro interaction with patiromer) [4, 6]",further results
CC1(C)S[C@@H]2[C@H](NC(=O)[C@H](N)c3ccc(O)cc3)C(=O)N2[C@H]1C(=O)O [Amoxicillin],,99.4,99.2,99.2,,99.4,-0.02,1.65,0.46,0,No binding (<30% drug bound in any test matrix),"pKa (A = acid) ([2]; acidic group, average of three determinations): 2.60; pKa [2, 8]: 9.59; pKa [2, 12]: 7.35"
NS(=O)(=O)c1cc(C(=O)O)c(NCc2ccco2)cc1Cl [Furosemide],67.3,79.1,94.5,94.5,67.3,79.1,,,,,Weak binder (30–55% bound in one test matrix),
Cc1cnc(C(=O)NCCc2ccc(S(=O)(=O)NC(=O)NC3CCCCC3)cc2)cn1 [Glipizide],72.9,98.5,96.5,,72.9,98.5,,,,,No binding (<30% drug bound in any test matrix),In Vitro Binding (% Drug Recovered) Acetate Buffer (pH 4.5) ([4]; pH 4.5): 96.5%
NCCCC[C@H](N[C@@H](CCc1ccccc1)C(=O)O)C(=O)N1CCC[C@H]1C(=O)O [Lisinopril],77.9,98.5,100.7,100.7,77.9,98.5,-0.51,-0.85,-0.52,-0.54,No binding (<30% drug bound in any test matrix),"pKa [2, 8]: 1.63; pKa [2, 12]: 7.13"
O=C([O-])[O-].[Li+].[Li+] [Lithium carbonate],,,,88.8,93.3,56.9,,,,,,Binding categories (level of in vitro interaction with patiromer) [4]: Weak binder (key: No binding: <30% drug bound in any test matrix; Weak binder: 30–55% bound in one test matrix; Strong binder: >55% bound in two or three test matrices)
CC(=O)S[C@@H]1CC2=CC(=O)CC[C@]2(C)[C@H]2CC[C@@]3(C)[C@@H](CC[C@@]34CCC(=O)O4)[C@H]12 [Spironolactone],78.7,96.8,98.6,98.6,78.7,96.8,2.53,2.53,2.53,2.53,No binding (<30% drug bound in any test matrix),
Digoxin,,103.4,109.3,109.3,,103.4,,,,,No binding (<30% drug bound in any test matrix),
